# According to patent publication US20230286973A1, “PROTEIN SECRETION INHIBITORS” (KEZAR LIFE SCIENCES, priority 2020, published 2023):
# Experiments:
# [1] = Liver Microsome Stability Assay (monkey); conditions: monkey liver microsomes, with NADPH, 1.0 uM compound
# Method: (§1) Stability of a compound was assessed in the presence of liver microsomes from various sources—mouse, rat, monkey and human liver microsomes. 1.0 uM compound, 0.4% DMSO in 0.1 M Potassium Phosphate with 1.0 mg/mL liver microsomes, were incubated at 37° C. with or without 1 mM NADPH. The samples were quenched at 0, and 30 minutes.
# [2] = test system: HER3-ss+4aa/Gaussia Luciferase; assay: Dox-Induced Her3-ss-Gluc Assay; type: cell-based; conditions: 24 hr Dox induction; 293FRT/TO cells; read-out: 24 hr Dox Inducible Her3(ss + 4)Gluc 293FRT/TO: Mean IC50
# In short: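 Doxycycline-inducible HER3 signal sequence+4aa/Gaussia luciferase construct, stably integrated in Flp-In 293 T-REx cells; compound dilutions applied with doxycycline at 37° C., 5% CO2.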
# [3] = test system: PD1-ss+10aa/Gaussia Luciferase; assay: Dox-Induced PD1-ss-Gluc Assay; type: cell-based; conditions: 24 hr Dox induction; 293FRT/TO cells; read-out: 24 hr Dox Inducible PD1ssGluc 293FRT/TO: Mean IC50
# In short: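 Flp-In 293 T-REx cells stably carrying a doxycycline-inducible Gaussia luciferase fused to the PD1 signal sequence plus 10 aa were plated the day before. Compound dilutions in DMSO/media containing doxycycline were then added and incubated at 37 °C, 5% CO2. Data for undefined stereochemistry refer to stereoisomer mixtures.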
# [4] = test system: TNFα-FL/Gaussia Luciferase; assay: Dox Induced TNFα-FL-Gluc Assay; type: cell-based; conditions: for IC50: 24 hr Dox induction, 293FRT/TO cells, read-out: 24 hr Dox Inducible TNFaFLGluc 293FRT/TO: Mean IC50; for 24 hr Dox Inducible TNFaFLGluc 293FRT/TO: TNF/PD1: ratio of TNFaFLGluc IC50 to PD1ssGluc IC50
# In short: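 Hygromycin/blasticidin-selected Flp-In 293 T-REx cells, TNFα-FL/Gaussia luciferase fusion under T-REx control; overnight plating, then compound in DMSO/media with doxycycline at 37 °C, 5% CO2; stereo-undefined structures tested as mixtures.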
# [5] = Liver Microsome Stability Assay (human); conditions: human liver microsomes, with NADPH, 1.0 uM compound
# Method: as §1
# [6] = test system: multiple myeloma cell line U266B1; assay: U266 Cell Viability Assay; type: cell-based, human; conditions: Homo sapiens, U-266, 48 h, U266B1 cells, Celltiter-Glo
# In short: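 After growth in serum-supplemented RPMI 1640, cells received serially diluted compound in DMSO/media and were kept 48 hours before a CellTiter-Glo luminescence readout.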
# [7] = Liver Microsome Stability Assay (mouse); conditions: mouse liver microsomes, with NADPH, 1.0 uM compound
# Method: as §1
# [8] = Liver Microsome Stability Assay (rat); conditions: rat liver microsomes, with NADPH, 1.0 uM compound
# Method: as §1
# [9] = test system: IL-2-FL/Gaussia Luciferase; assay: Dox Induced IL2-FL-Gluc Assay; type: cell-based; conditions: for IC50: 24 hr Dox induction, 293FRT/TO cells, read-out: 24 hr Dox Inducible IL2FLGluc 293FRT/TO: Mean IC50; for 24 hr Dox Inducible IL2FLGluc 293FRT/TO: IL2/PD1: ratio of IL2FLGluc IC50 to PD1ssGluc IC50
# In short: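 A hygromycin- and blasticidin-resistant 293 T-REx clone carrying inducible IL-2–Gaussia luciferase (full-length IL-2, residues 1-153) serves as the cell system. After overnight plating, the cells get test compounds together with doxycycline in DMSO/media and are incubated at 37° C, 5% CO2.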
# [10] = test system: multiple myeloma cell line NCI-H929; assay: H929 Cell Viability Assay; type: cell-based, human; conditions: Homo sapiens, NCI-H929, 48 h, NCI-H929 cells, Celltiter-Glo
# In short: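 A 48-hour compound treatment of cells in 10% FBS RPMI medium was followed by luciferase-based viability quantification.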
Compound,Liver Microsome Stability (Multiple Species): Monkey - % Remaining after 30 min w/NADPH [1],IC50 [2],IC50 [3],IC50 [4],24 hr Dox Inducible TNFaFLGluc 293FRT/TO: TNF/PD1 [4],Liver Microsome Stability (Multiple Species): Human - % Remaining after 30 min w/NADPH [5],EC50 [6],Liver Microsome Stability (Multiple Species): Mouse - % Remaining after 30 min w/NADPH [7],Liver Microsome Stability (Multiple Species): Rat - % Remaining after 30 min w/NADPH [8],IC50 [9],24 hr Dox Inducible IL2FLGluc 293FRT/TO: IL2/PD1 [9],EC50 [10]
"O=C(Nc1nc([C@H]2CCCN2c2ccc(OC3CN(C(=O)CO)C3)cc2)cs1)c1cccn1Cc1ccnc(F)c1 [Compound A110, (R)-1-((2-fluoropyridin-4-yl)methyl)-N-(4-(1-(4-((1-(2-hydroxyacetyl)azetidin-3-yl)oxy)phenyl)pyrrolidin-2-yl)thiazol-2-yl)-1H-pyrrole-2-carboxamide]",4.58%,0.0364 µM,0.0232 µM,0.31 µM,13.4,10.5%,> 25 µM,31.2%,55.7%,0.0798 µM,3.4,0.884 µM
"C[C@@H](O)c1ccc(N2CCC[C@@H]2c2csc(NC(=O)c3cccn3Cc3ccnc(F)c3)n2)cc1 [Compound A111, 1-((2-fluoropyridin-4-yl)methyl)-N-(4-((R)-1-(4-((R)-1-hydroxyethyl)phenyl)pyrrolidin-2-yl)thiazol-2-yl)-1H-pyrrole-2-carboxamide]",3.48%,0.0136 µM,0.00792 µM,0.0945 µM,11.9,2.78%,> 25 µM,12.7%,7.97%,0.0163 µM,2.1,0.422 µM
"C[C@H](O)c1ccc(N2CCC[C@@H]2c2csc(NC(=O)c3cccn3Cc3ccnc(F)c3)n2)cc1 [Compound A112, 1-((2-fluoropyridin-4-yl)methyl)-N-(4-((R)-1-(4-((S)-1-hydroxyethyl)phenyl)pyrrolidin-2-yl)thiazol-2-yl)-1H-pyrrole-2-carboxamide]",0.35%,0.00598 µM,0.00381 µM,0.04 µM,10.5,3.41%,> 25 µM,5.81%,6.03%,0.00864 µM,2.3,0.408 µM
"O=C(Nc1nc([C@H]2CCCN2c2ccc(CO)cc2)cs1)c1cccn1Cc1ccnc(F)c1 [Compound A113, (R)-1-((2-fluoropyridin-4-yl)methyl)-N-(4-(1-(4-(hydroxymethyl)phenyl)pyrrolidin-2-yl)thiazol-2-yl)-1H-pyrrole-2-carboxamide]",1.3%,0.0226 µM,0.00982 µM,0.136 µM,13.9,0.61%,> 25 µM,4.74%,0.64%,0.0179 µM,1.8,0.615 µM
"O=C(Nc1nc([C@H]2CCCN2c2ccc(C3(O)CCC3)cc2)cs1)c1cccn1Cc1ccnc(F)c1 [Compound A114, (R)-1-((2-fluoropyridin-4-yl)methyl)-N-(4-(1-(4-(1-hydroxycyclobutyl)phenyl)pyrrolidin-2-yl)thiazol-2-yl)-1H-pyrrole-2-carboxamide]",0.43%,0.0878 µM,0.0362 µM,0.551 µM,15.2,3.96%,> 25 µM,13%,8.6%,0.0549 µM,1.5,1.02 µM
"Cc1cc(C(=O)Nc2nc([C@H]3CCCN3c3ccccc3)cs2)n(Cc2ccncc2)c1 [Compound A115, (R)-4-methyl-N-(4-(1-phenylpyrrolidin-2-yl)thiazol-2-yl)-1-(pyridin-4-ylmethyl)-1H-pyrrole-2-carboxamide]",3.2%,0.0893 µM,0.0415 µM,0.587 µM,14.1,14.6%,7.27 µM,3.39%,9.02%,0.122 µM,2.9,2 µM
O=C(Nc1nc([C@H]2CCCN2c2ccc(Br)cc2)cs1)c1cccn1Cc1ccnc(F)c1 [Compound A116],18.9%,0.00414 µM,0.002 µM,0.0395 µM,19.7,45.3%,> 25 µM,60.7%,37.7%,0.00493 µM,2.5,0.16 µM
"CC(=O)N(C)CCOc1ccc(N2CCC[C@@H]2c2csc(NC(=O)c3cccn3Cc3ccnc(F)c3)n2)cc1 [Compound A117, (R)-1-((2-fluoropyridin-4-yl)methyl)-N-(4-(1-(4-(2-(N-methylacetamido)ethoxy)phenyl)pyrrolidin-2-yl)thiazol-2-yl)-1H-pyrrole-2-carboxamide]",0.09%,0.0334 µM,0.0282 µM,0.301 µM,10.7,2.64%,> 25 µM,0.81%,8.86%,0.051 µM,1.8,0.938 µM
